These antisense oligonucleotides have a phosphorothioate backbone; sugars and methylation of C are not fully specified.
Further: test concentration or dose not given here.

The first series has as its target FADD. To be noted: ASO.
AAGGAAGATTTAGAGAGT: the remaining target (mRNA or protein) (fraction of control) turned out to be 0.72.

CCAGCGGCCCAAGGATTC showed a remaining target (mRNA or protein) (fraction of control) of no less than 1.

As for AGTTGTAAAGCTGTGTTT, the remaining target (mRNA or protein) (fraction of control) turned out to be 0.57.

As to GGCCCCACTCCTGTTCTG, the remaining target (mRNA or protein) (fraction of control) was 0.52.

Turning to CGCGCCCGAGGCATAGGA, the remaining target (mRNA or protein) (fraction of control) worked out at 0.75.

GTCTGAGACTTTGAGCTG: the remaining target (mRNA or protein) (fraction of control) was no less than 1.

Regarding ACCAGGAACGGGTCCATG, the remaining target (mRNA or protein) (fraction of control) was 0.92.

Sequence ACACCGAGTGCAGCAGCA gave a remaining target (mRNA or protein) (fraction of control) of 0.82.

Sequence GCTCGCTGCTCGACAGGC returned a remaining target (mRNA or protein) (fraction of control) of 0.74.

Take GGACCACGGCCAACCAGG: the remaining target (mRNA or protein) (fraction of control) was 0.58.

Regarding CTCCGGTGCCTGATTCAC, the remaining target (mRNA or protein) (fraction of control) worked out at 0.94.

TTTGATACAAAACAGTAA registered a remaining target (mRNA or protein) (fraction of control) of 0.42.

Sequence GCCCCTACTTAGCAGTCT gave a remaining target (mRNA or protein) (fraction of control) of 0.65.

In turn, GACAGGCTGGACGACACC returned a remaining target (mRNA or protein) (fraction of control) of 0.62.

TCATCAGCACCTCACAGA came in with a remaining target (mRNA or protein) (fraction of control) of 0.74.

The sequence AAGATACGAGATCCCGCT displayed a remaining target (mRNA or protein) (fraction of control) of 0.64.

Turning to CGCAGCTTGAGTTCAGAA, the remaining target (mRNA or protein) (fraction of control) is 0.65.

The sequence GCCAGCCTTCTCCAATCT yielded a remaining target (mRNA or protein) (fraction of control) of 0.62.

As for CTCCAGCTTGCGCTTGAC, the remaining target (mRNA or protein) (fraction of control) amounted to 0.78.

Sequence CCCCGCCTCGAAGTCGTC returned a remaining target (mRNA or protein) (fraction of control) of 0.82.

For CTCCCGCACACGCTCTGT, the remaining target (mRNA or protein) (fraction of control) is no less than 1.

Turning to CATGGAGAAGAGGTCTAG, the remaining target (mRNA or protein) (fraction of control) was determined as 0.71.

CCGGTGGCCTCCAAGGAA displayed a remaining target (mRNA or protein) (fraction of control) of no less than 1.

The sequence TACCAGGTCAGCCACCAG registered a remaining target (mRNA or protein) (fraction of control) of 0.91.

Consider TCATAGTGAGGAAGAAAT, for which the remaining target (mRNA or protein) (fraction of control) is no less than 1.

TGGAGTAACAGTGTGACT gave a remaining target (mRNA or protein) (fraction of control) of 0.64.

The sequence GCTGGGCTACCTTCCTGG returned a remaining target (mRNA or protein) (fraction of control) of no less than 1.

The sequence CCATCAGGACGCTTCGGA gave a remaining target (mRNA or protein) (fraction of control) of 0.93.

Sequence GATGCTGTCGATCTTGGT yielded a remaining target (mRNA or protein) (fraction of control) of 0.91.

CTGTGTTCTTCCAGATTC showed a remaining target (mRNA or protein) (fraction of control) of no less than 1.

For the sequence GAACCAAAGTCCAGGCTG, the remaining target (mRNA or protein) (fraction of control) was no less than 1.

Turning to CTCCAGGTCGTTCTGCTC, the remaining target (mRNA or protein) (fraction of control) is 0.65.

CCCCACATTATCACATAT: the remaining target (mRNA or protein) (fraction of control) came to 0.9.

Turning to GGTTCCAACTTTCCAACT, the remaining target (mRNA or protein) (fraction of control) amounted to 0.97.

GTTGCGTTCTCCTTCTCT displayed a remaining target (mRNA or protein) (fraction of control) of 0.76.

For CACACAGGTCTTCTTCCC, the remaining target (mRNA or protein) (fraction of control) is no less than 1.

In turn, ATGGGCTCTGGTGAAGGA came in with a remaining target (mRNA or protein) (fraction of control) of no less than 1.

Consider CTTCGCTCCGATTCCTGG, for which the remaining target (mRNA or protein) (fraction of control) was no less than 1.

CACCACAGCACCCCGCCT returned a remaining target (mRNA or protein) (fraction of control) of 0.95.

As to CCTGCTGGGTCTTCACAG, the remaining target (mRNA or protein) (fraction of control) is no less than 1.

In another series the target is PTEN. Conditions: ASO.
TCTCCTCAGCAGCCAGAG displayed a remaining target (mRNA or protein) (fraction of control) of 0.66.

Consider TGTTTCAAGCCCATTCTT, for which the remaining target (mRNA or protein) (fraction of control) came to 0.35.

In turn, CAGGAGAAGCCGAGGAAG had a remaining target (mRNA or protein) (fraction of control) of 0.49.

As to GAATATATCTTCACCTTT, the remaining target (mRNA or protein) (fraction of control) was found to be 0.58.

For TTAAATTTGGCGGTGTCA, the remaining target (mRNA or protein) (fraction of control) was no less than 1.

The sequence CCCCAATACAGATTCACT showed a remaining target (mRNA or protein) (fraction of control) of 0.48.

TCTGGATCAGAGTCAGTG yielded a remaining target (mRNA or protein) (fraction of control) of 0.56.

AATTATTTCCTTTCTGAG displayed a remaining target (mRNA or protein) (fraction of control) of 0.86.

Take CAGATTAATAACTGTAGC: the remaining target (mRNA or protein) (fraction of control) was found to be 0.91.

The sequence GGGAGGTGCCGCCGCCGC gave a remaining target (mRNA or protein) (fraction of control) of 0.58.

CCTCCGAACGGCTGCCTC yielded a remaining target (mRNA or protein) (fraction of control) of 0.4.

For TGTCTCTGGTCCTTACTT, the remaining target (mRNA or protein) (fraction of control) is 0.66.

CAAGATCTTCACAAAAGG registered a remaining target (mRNA or protein) (fraction of control) of no less than 1.

On to TGAAGAATGTATTTACCC, for which the remaining target (mRNA or protein) (fraction of control) worked out at 0.56.

In turn, GGTTGGCTTTGTCTTTAT came in with a remaining target (mRNA or protein) (fraction of control) of 0.23.

Regarding ATTTCTTGATCACATAGA, the remaining target (mRNA or protein) (fraction of control) was no less than 1.

CCGGGTCCCTGGATGTGC showed a remaining target (mRNA or protein) (fraction of control) of 0.24.

In turn, TAGCAAAACCTTTCGGAA yielded a remaining target (mRNA or protein) (fraction of control) of 0.49.

Sequence TGCTAACGATCTCTTTGA showed a remaining target (mRNA or protein) (fraction of control) of 0.57.

Source of the values: the OligoGym collection.
